Several values for one entry are separate records, joined by “and”; a condition that tells them apart may be missing. Equal values may be shown once.
Columns and labels:
[1] = DPPH free radical scavenging assay; conditions: relative IC50, 30 min in the dark, absorbance at 517 nm, methanolic DPPH
Protocol: The stock solutions of the flavonoid acetamide derivatives were prepared in dimethyl sulfoxide. A fresh batch of 50 µM DPPH radical solution was prepared in methanol. The DPPH free radical scavenging activities of the flavonoid acetamide derivatives were determined using our previously reported literature procedure.
Into an amber vial, 1.00 × 10^2 µL solution of the flavonoid acetamide derivative in dimethyl sulfoxide was added into a 3.00 × 10^3 µL of a fresh batch of methanolic DPPH solution. This reaction mixture was incubated, away from light, for half an hour. The absorbance of the resultant solution was read on a UV-Vis spectrophotometer, λmax = 517 nm. This experiment was done across several concentrations to obtain the concentration-based antioxidant activity data which was subsequently used to calculate the relative half-maximal inhibitory concentration (IC50) values.
Given the observed variation of the stability of the DPPH free radical across different solvent vehicles, the stability of the DPPH free radicals was established in both methanol and dimethyl sulfoxide solvents. The percentage DPPH free radical scavenging activity of the flavonoid acetamide derivatives was computed against dimethyl sulfoxide, as per Equation (3). (3) % DPPH RSA=Absorbance of control−Absorbance of sample /Absorbance of control×100
Absorbance control is the absorbance of the blank methanolic DPPH sample with DMSO. The absorbance values were obtained at λmax = 517 nm.
The % RSA obtained was plotted and used to obtain the relative half-maximal inhibitory concentration (IC50) values, which were double confirmed using verified online computational tools.
The 2,2-diphenyl-1-picrylhydrazyl (DPPH) assay was used to evaluate the free radical scavenging capacity of the flavonoid acetamide derivatives. This assay is based on the colorimetric quantification of the DPPH free radicals. The reaction of the DPPH radicals with an antioxidant compound results in the loss of the DPPH free radical properties. The loss of the DPPH free radical properties is identifiable through a color change; a discoloration marked by the formation of a yellow color from the initial violet color. Slight antioxidant activity may be visually imperceptible; such a change may still be monitored spectrophotometrically through UV-Vis analysis at λmax = 517 [40, 44, 45].
The ability of the flavonoid acetamide derivatives to scavenge the DPPH free radicals is influenced by the concentration of both the flavonoid acetamide derivative and the DPPH free radicals, the reaction time, and presence of light during the reaction. The reaction time was set at 30 min and the concentration of the DPPH free radicals was […]. The concentration of the flavonoid acetamide derivatives was varied and the experiment was carried out in the dark. The actual concentration of the DPPH free radical before the addition of the flavonoid acetamide derivative was used as the standard for the purposes of the estimation of the DPPH free radical scavenging effect. The decrease in the DPPH free radical concentration upon the addition of the flavonoid acetamide derivative was used to calculate the antioxidant activity of the flavonoid acetamide derivatives. Thus, the greater the decrease in the DPPH free radical concentration, the higher the antioxidant activity. The antioxidant activity was expressed as the % RSA. […]

[2] = In vitro bioavailability by dialysis tubing procedure (pepsin then pancreatin digestion); assay type: in vitro ADME; conditions: for % bioavailability after phase 1 (pepsin digestion) / % bioavailability after phase 2 (pancreatin digestion): in vitro, dialysis tubing, average of three trials ± SD; for % bioavailability after phase 1 (pepsin digestion): 2 h pepsin digestion, pH 1.0, 37 °C; for % bioavailability after phase 2 (pancreatin digestion): 4 h pancreatin digestion, pH 7.0, 37 °C; for Total in vitro bioavailability: sum of phase 1 and phase 2 % bioavailability; for % bioavailability after phase 1 (pepsin digestion): tested at 69.8 µM
Protocol: The in vitro bioavailability studies of the flavonoid acetamide derivatives were done in simulated gastric and intestinal fluids using the dialysis tubing procedure, as previously reported. The procedure involves two consecutive digestion stages: phase 1, which is a 2-h pepsin-based digestion followed by phase 2, which is a 4-h pancreatin based digestion. This procedure was adopted from Chimento, Adele, et al. (2013) and Grande, Fedora, et al. (2016).
Phase 1: Pepsin digestion, 2 h
The flavonoid acetamide derivatives were dissolved in dimethyl sulfoxide (DMSO) to achieve a concentration of 1.00 × 10^−3 M. The porcine pepsin was prepared to achieve 2.40 × 10^4 U porcine pepsin per 1.00 × 10^−3 L of solution. The sodium cholate solution was prepared to attain a final concentration of 2.00 w/v% while hydrochloric acid was prepared at a concentration of 8.50 × 10^−1 N, for immediate use.
The pepsin digestion phase was completed in 120 min. Into an oven dried test tube, a 1.00 mL of the newly prepared porcine pepsin solution was added, followed by 300 µL of the flavonoid acetamide solution. These two solutions were mixed prior to the addition of 3.00 mL of a fresh batch of the sodium cholate solution. The resultant solution was appropriately mixed and transferred into a dialysis tubing, which was subsequently sealed on both ends. The dialysis tubing was immersed into a freshly prepared 0.85 N hydrochloric acid solution (pH 1.0). The flask and its contents were incubated in a shaking water bath at a regulated temperature of 37 ± 0.5 °C. After 120 min, 3.00 mL of the liquid in the flask was obtained for UV-Vis analysis. The dialysis tubing was carefully recovered and readied for the second stage of the experiment, phase 2. Each sample experiment was done in triplicates.
Phase 2: Pancreatin digestion, 4 h
The following solutions were prepared for immediate use: a solution containing 8.00 × 10^−1 N sodium bicarbonate with […] of porcine pancreatin per 1.00 mL of solution. The dialysis tubing recovered following the pepsin digestion was carefully opened on one end and for the addition of […] of esterase and 1.30 mL of the fresh batch of the NaHCO3 solution. These contents were appropriately mixed, and the dialysis tubing was suitably sealed and immersed in a flask with PBS buffer (at pH 7.0). The flask was incubated for 4 h, in a shaking water bath at a regulated temperature of 37 ± 0.5 °C. At the end of the experiment, a 3.00 mL sample of the liquid in the flask was obtained for UV-Vis analysis. All sample experiments in this phase were done in triplicates.
The calibration curve for each flavonoid acetamide derivative was prepared at both pH 1.0 and pH 7.0. The triplicate samples obtained from both phase 1 and phase 2 of the digestions were characterized using UV-Vis; the data obtained was applied to the equations obtained from the calibration curves to calculate the amount of the flavonoid acetamide derivatives in the recovered samples. The percentage (%) of the recovered flavonoid acetamide derivative for each sample after both pepsin digestion (phase 1) and pancreatin digestion (phase 2) was calculated relative to the total flavonoid content used. Thus, the (%) bioavailability was determined from Equation (1) below. (1) % Bioavailability=Recovered Content/Total Content×100
The total in vitro bioavailability was defined as the sum of the % bioavailability after phase 1 and % bioavailability after phase 2 of the digestion, as shown in Equation (2). The final reported in vitro bioavailability value was the average of the three trials ± the standard deviation. (2) Total Bioavailability=phase 1 bioavailability+phase 2 bioavailability
The bioavailability of the flavonoid acetamides was determined using our previously reported in vitro dialysis tubing procedure. […]

| SMILES | IC50 [1] [µM] | % bioavailability after phase 1 (pepsin digestion) [2] | % bioavailability after phase 2 (pancreatin digestion) [2] | Total in vitro bioavailability [2] |
| --- | --- | --- | --- | --- |
| NC(=O)COc1cc(O)c2c(=O)c(OCC(N)=O)c(-c3ccc(OCC(N)=O)c(OCC(N)=O)c3)oc2c1 [Compound 4, 2,2′-((4-(3,7-bis(2-amino-2-oxoethoxy)-5-hydroxy-4-oxo-4H-chromen-2-yl)-1,2-phenylene)bis(oxy))diacetamide] | 31.5 | 6.70% and 6.70 ± 0.03% | 9.26% and 9.26 ± 0.05% | 15.97% and 15.97 ± 0.04% |
| CCOC(=O)COc1cc(OCC(N)=O)cc2oc(-c3ccc(OCC(N)=O)c(OCC(N)=O)c3)c(OCC(N)=O)c(=O)c12 [Compound 5, ethyl 2-((3,7-bis(2-amino-2-oxoethoxy)-2-(3,4-bis(2-amino-2-oxoethoxy)phenyl)-4-oxo-4H-chromen-5-yl)oxy)acetate] | 198 | 11.52% and 11.52 ± 0.02% | 13.14% and 13.14 ± 0.01% | 24.66% and 24.66 ± 0.01% |
| NC(=O)COc1cc(OCC(N)=O)c2c(=O)c(OCC(N)=O)c(-c3ccc4c(c3)OCCO4)oc2c1 [Compound 7, 2,2′,2″-((2-(2,3-dihydrobenzo[b][1,4]dioxin-6-yl)-4-oxo-4H-chromene-3,5,7-triyl)tris(oxy))triacetamide] | 59.2 | 16.11% and 16.11 ± 0.11% | 22.01% and 22.01 ± 0.21% | 38.12 ± 0.16% and 38.12% |
| NC(=O)COc1ccc(-c2cc(=O)c3c(O)cc(OCC(N)=O)cc3o2)cc1 [Compound 11, 2-(4-(7-(2-amino-2-oxoethoxy)-5-hydroxy-4-oxo-4H-chromen-2-yl)phenoxy)acetamide] | 93.7 | 9.98% and 9.98 ± 0.10% | 9.30% and 9.30 ± 0.09% | 19.28% and 19.28 ± 0.19% |
| NC(=O)COc1cc(O)c2c(=O)cc(-c3ccc(OCC(N)=O)c(OCC(N)=O)c3)oc2c1 [Compound 15, 2,2′-((4-(7-(2-amino-2-oxoethoxy)-5-hydroxy-4-oxo-4H-chromen-2-yl)-1,2-phenylene)bis(oxy))diacetamide] | 47.1 | 12.51% and 12.51 ± 0.02% | 18.01% and 18.01 ± 0.26% | 30.51% and 30.51 ± 0.27% |
